In brackets after ≈: the same amount, converted by molar mass. Where two headings read alike, the source gives them in different places.
Key:
Type in all cases: cell-based
Escherichia coli 311 = assay: In vitro MIC, agar dilution, Escherichia coli 311; settings: 35° C., 18 hours, nutrient agar, read-out: Minimal Inhibitory Concentration
Description: (§1) The in vitro activity of representative compounds of the present invention are given in the following Table I in terms of minimal inhibitory concentration. The test used was the standard agar dilution test using a Steers multiple inocula replicator and incubating at 35° C. for 18 hours in conventional nutrient agar.

[1] = test system: Enterobacter cloacae MA75-1; assay: In vitro MIC, agar dilution, Enterobacter cloacae MA75-1; settings: read-out: Minimal Inhibitory Concentration
Description: as §1

Proteus morganii K72 = assay: In vitro MIC, agar dilution, Proteus morganii K72; settings: Morganella morganii; Proteus morganii K72; agar dilution, 35° C., 18 hours, nutrient agar; read-out: Minimal Inhibitory Concentration
Description: as §1

Klebsiella pneumoniae AD = assay: In vitro MIC, agar dilution, Klebsiella pneumoniae AD; settings: Klebsiella pneumoniae AD; agar dilution, 35° C., 18 hours, nutrient agar; read-out: Minimal Inhibitory Concentration
Description: as §1

Escherichia coli OSU75-1 = assay: In vitro MIC, agar dilution, Escherichia coli OSU75-1; settings: OSU751, 35° C., 18 hours, nutrient agar, read-out: Minimal Inhibitory Concentration
Description: as §1

[2] = test system: Pseudomonas aeruginosa 12-4-4; assay: In vitro MIC, agar dilution, Pseudomonas aeruginosa 12-4-4; settings: 1244; Pseudomonas aeruginosa 12-4-4; agar dilution, 35° C., 18 hours, nutrient agar; read-out: Minimal Inhibitory Concentration
Description: as §1

[3] = test system: Enterobacter cloacae OSU75-2; assay: In vitro MIC, agar dilution, Enterobacter cloacae OSU75-2; settings: OSU752; Enterobacter cloacae OSU75-2; agar dilution, 35° C., 18 hours, nutrient agar; read-out: Minimal Inhibitory Concentration
Description: as §1

[4] = test system: Klebsiella pneumoniae W75-2; assay: In vitro MIC, agar dilution, Klebsiella pneumoniae W75-2; settings: W752; Klebsiella pneumoniae W75-2; agar dilution, 35° C., 18 hours, nutrient agar; read-out: Minimal Inhibitory Concentration
Description: as §1

Escherichia coli W75-1 = assay: In vitro MIC, agar dilution, Escherichia coli W75-1; settings: W751, 35° C., 18 hours, nutrient agar, read-out: Minimal Inhibitory Concentration
Description: as §1

[5] = test system: Staphylococcus aureus Q74-6; assay: In vitro MIC, agar dilution, Staphylococcus aureus Q74-6; settings: Q746; Staphylococcus aureus Q74-6; agar dilution, 35° C., 18 hours, nutrient agar; read-out: Minimal Inhibitory Concentration
Description: as §1

[6] = test system: Klebsiella pneumoniae UR76-1; assay: In vitro MIC, agar dilution, Klebsiella pneumoniae UR76-1; settings: UR761; Klebsiella pneumoniae UR76-1; agar dilution, 35° C., 18 hours, nutrient agar; read-out: Minimal Inhibitory Concentration
Description: as §1

[7] = test system: Klebsiella pneumoniae W75-4; assay: In vitro MIC, agar dilution, Klebsiella pneumoniae W75-4; settings: W754; Klebsiella pneumoniae W75-4; agar dilution, 35° C., 18 hours, nutrient agar; read-out: Minimal Inhibitory Concentration
Description: as §1

Serratia marcens QHC77-2 = assay: In vitro MIC, agar dilution, Serratia marcens QHC77-2; settings: QHC772; Serratia marcens QHC77-2; agar dilution, 35° C., 18 hours, nutrient agar; read-out: Minimal Inhibitory Concentration
Description: as §1

[8] = test system: Pseudomonas aeruginosa PD05141; assay: In vitro MIC, agar dilution, Pseudomonas aeruginosa PD05141; settings: Pseudomonas aeruginosa PD05141; agar dilution, 35° C., 18 hours, nutrient agar; read-out: Minimal Inhibitory Concentration
Description: as §1

[9] = test system: Enterobacter aerogenes UR76-3; assay: In vitro MIC, agar dilution, Enterobacter aerogenes UR76-3; settings: Klebsiella aerogenes, UR763; Enterobacter aerogenes UR76-3; agar dilution, 35° C., 18 hours, nutrient agar; read-out: Minimal Inhibitory Concentration
Description: as §1

Serratia marcens K77-1 = assay: In vitro MIC, agar dilution, Serratia marcens K77-1; settings: K771; Serratia marcens K77-1; agar dilution, 35° C., 18 hours, nutrient agar; read-out: Minimal Inhibitory Concentration
Description: as §1

Serratia K101 = assay: In vitro MIC, agar dilution, Serratia K101; settings: Serratia K101; agar dilution, 35° C., 18 hours, nutrient agar; read-out: Minimal Inhibitory Concentration
Description: as §1

[10] = test system: Staphylococcus aureus Q74-1; assay: In vitro MIC, agar dilution, Staphylococcus aureus Q74-1; settings: Q741; Staphylococcus aureus Q74-1; agar dilution, 35° C., 18 hours, nutrient agar; read-out: Minimal Inhibitory Concentration
Description: as §1

[11] = test system: Escherichia coli ESS22-31; assay: In vitro MIC, agar dilution, Escherichia coli ESS22-31; settings: read-out: Minimal Inhibitory Concentration
Description: as §1

[12] = test system: Klebsiella pneumoniae MA75-1; assay: In vitro MIC, agar dilution, Klebsiella pneumoniae MA75-1; settings: MA751; Klebsiella pneumoniae MA75-1; agar dilution, 35° C., 18 hours, nutrient agar; read-out: Minimal Inhibitory Concentration
Description: as §1

[13] = test system: Pseudomonas aeruginosa G236; assay: In vitro MIC, agar dilution, Pseudomonas aeruginosa G236; settings: Pseudomonas aeruginosa G236; agar dilution, 35° C., 18 hours, nutrient agar; read-out: Minimal Inhibitory Concentration
Description: as §1

[14] = test system: Pseudomonas aeruginosa UCS 76-13; assay: In vitro MIC, agar dilution, Pseudomonas aeruginosa UCS 76-13; settings: UCS7613; Pseudomonas aeruginosa UCS 76-13; agar dilution, 35° C., 18 hours, nutrient agar; read-out: Minimal Inhibitory Concentration
Description: as §1

Proteus vulgaris N74-1 = assay: In vitro MIC, agar dilution, Proteus vulgaris N74-1; settings: N741, 35° C., 18 hours, nutrient agar, read-out: Minimal Inhibitory Concentration
Description: as §1

Proteus rettgeri N76-1 = assay: In vitro MIC, agar dilution, Proteus rettgeri N76-1; settings: Providencia rettgeri, N761; Proteus rettgeri N76-1; agar dilution, 35° C., 18 hours, nutrient agar; read-out: Minimal Inhibitory Concentration
Description: as §1

Enterococcus SM77-15 = assay: In vitro MIC, agar dilution, Enterococcus SM77-15; settings: SM7715; Enterococcus SM77-15; agar dilution, 35° C., 18 hours, nutrient agar; read-out: Minimal Inhibitory Concentration
Description: as §1

[15] = ESS2231, Escherichia coli ESS22-31, agar dilution, 35° C., 18 hours, nutrient agar
[16] = MA751, Enterobacter cloacae MA75-1, agar dilution, 35° C., 18 hours, nutrient agar
[17] = Escherichia coli, ESS2231, 18 h

Row | SMILES | MIC (Escherichia coli 311) | MIC (Proteus morganii K72) | MIC (Klebsiella pneumoniae AD) | MIC (Escherichia coli OSU75-1) | MIC [2] | MIC [3] | MIC [4] | MIC (Escherichia coli W75-1) | MIC [5] | MIC [6] | MIC [7] | MIC (Serratia marcens QHC77-2) | MIC [8] | MIC [9] | MIC (Serratia marcens K77-1) | MIC (Serratia K101) | MIC [10] | MIC [12] | MIC [13] | MIC [14] | further results
1 | CCN1CCN(C(=O)NC(C(=O)NC2C(=O)N3C(C(=O)O)=C(CSc4n[nH]c(-n5cccn5)n4)CS[C@H]23)c2ccc(O)cc2)C(=O)C1=O (some centres unmarked) [Compound VI, 7-[2-(4-Ethyl-2,3-dioxo-1-piperazinecarboxamido)-2-(p-hydroxyphenyl)acetamido]-3-[5-(1-pyrazolyl)-1,2,4-triazol-3-ylthiomethyl]-3-cephem-4-carboxylic acid] | 1 µg/mL (≈ 1.44 µM) | 32 µg/mL (≈ 45.9 µM) | 0.5 µg/mL (≈ 0.718 µM) | 2 µg/mL (≈ 2.87 µM) | 16 µg/mL (≈ 23 µM) | 64 µg/mL (≈ 91.9 µM) | 4 µg/mL (≈ 5.74 µM) | 2 µg/mL (≈ 2.87 µM) | 8 µg/mL (≈ 11.5 µM) | 16 µg/mL (≈ 23 µM) | 32 µg/mL (≈ 45.9 µM) | > 128 µg/mL | 64 µg/mL (≈ 91.9 µM) | 0.5 µg/mL (≈ 0.718 µM) | > 128 µg/mL | 128 µg/mL (≈ 184 µM) | 4 µg/mL (≈ 5.74 µM) | 2 µg/mL (≈ 2.87 µM) | 32 µg/mL (≈ 45.9 µM) | 64 µg/mL (≈ 91.9 µM) | MIC ([1]; Enterobacter cloacae, MA751, 18 h): > 128 µg/mL; MIC [11, 15]: ≤ 0.12 µg/mL; MIC (Proteus vulgaris N74-1): 16 µg/mL (≈ 23 µM); MIC (Proteus rettgeri N76-1): 16 µg/mL (≈ 23 µM); MIC (Enterococcus SM77-15): > 128 µg/mL
2 | CCN1CCN(C(=O)NC(C(=O)NC2C(=O)N3C(C(=O)O)=C(CSc4nnc(-n5cccn5)n4N)CS[C@H]23)c2ccc(O)cc2)C(=O)C1=O (some centres unmarked) [Compound VII, 7-[2-(4-Ethyl-2,3-dioxo-1-piperazinecarboxamido)-2-(p-hydroxyphenyl)acetamido]-3-[4-amino-5-(1-pyrazolyl)-1,2,4-triazol-3-ylthiomethyl]-3-cephem-4-carboxylic acid] | 0.5 µg/mL (≈ 0.703 µM) | 32 µg/mL (≈ 45 µM) | 1 µg/mL (≈ 1.41 µM) | 1 µg/mL (≈ 1.41 µM) | 16 µg/mL (≈ 22.5 µM) | 16 µg/mL (≈ 22.5 µM) | 2 µg/mL (≈ 2.81 µM) | 1 µg/mL (≈ 1.41 µM) | 4 µg/mL (≈ 5.62 µM) | 16 µg/mL (≈ 22.5 µM) | 32 µg/mL (≈ 45 µM) | 128 µg/mL (≈ 180 µM) | 64 µg/mL (≈ 89.9 µM) | 0.25 µg/mL (≈ 0.351 µM) | 64 µg/mL (≈ 89.9 µM) | 32 µg/mL (≈ 45 µM) | 2 µg/mL (≈ 2.81 µM) | 1 µg/mL (≈ 1.41 µM) | 32 µg/mL (≈ 45 µM) | 64 µg/mL (≈ 89.9 µM) | MIC [1, 16]: > 128 µg/mL; MIC [11, 15]: ≤ 0.12 µg/mL; MIC (Proteus vulgaris N74-1): 32 µg/mL (≈ 45 µM); MIC (Proteus rettgeri N76-1): 8 µg/mL (≈ 11.2 µM); MIC (Enterococcus SM77-15): 128 µg/mL (≈ 180 µM)
3 | CCN1CCN(C(=O)NC(C(=O)NC2C(=O)N3C(C(=O)O)=C(CSc4nnc(-n5nc(C)cc5C)n4N)CS[C@H]23)c2ccc(O)cc2)C(=O)C1=O (some centres unmarked) [Compound VIII, 7-[2-(4-Ethyl-2,3-dioxo-1-piperazinecarboxamido)-2-(p-hydroxyphenyl)acetamido]-3-[4-amino-5-(3,5-dimethyl-1-pyrazolyl)-1,2,4-triazol-3-ylthiomethyl]-3-cephem-4-carboxylic acid] | 2 µg/mL (≈ 2.7 µM) | 32 µg/mL (≈ 43.3 µM) | 2 µg/mL (≈ 2.7 µM) | 4 µg/mL (≈ 5.41 µM) | 32 µg/mL (≈ 43.3 µM) | 128 µg/mL (≈ 173 µM) | 4 µg/mL (≈ 5.41 µM) | 4 µg/mL (≈ 5.41 µM) | 8 µg/mL (≈ 10.8 µM) | 32 µg/mL (≈ 43.3 µM) | 32 µg/mL (≈ 43.3 µM) | > 128 µg/mL | > 128 µg/mL | 1 µg/mL (≈ 1.35 µM) | 128 µg/mL (≈ 173 µM) | 64 µg/mL (≈ 86.5 µM) | 4 µg/mL (≈ 5.41 µM) | 2 µg/mL (≈ 2.7 µM) | 128 µg/mL (≈ 173 µM) | > 128 µg/mL | MIC [1, 16]: > 128 µg/mL; MIC [11, 15]: ≤ 0.12 µg/mL; MIC (Proteus vulgaris N74-1): 128 µg/mL (≈ 173 µM); MIC (Proteus rettgeri N76-1): 16 µg/mL (≈ 21.6 µM); MIC (Enterococcus SM77-15): 128 µg/mL (≈ 173 µM)
4 | CC(=O)OCC1=C(C(=O)O)N2C(=O)[C@@H](NC(=O)[C@H](N)c3ccccc3)[C@H]2SC1 [Compound XI, Cephaloglycin, reference compound] | 2 µg/mL (≈ 4.93 µM) | > 128 µg/mL | 0.5 µg/mL (≈ 1.23 µM) | 2 µg/mL (≈ 4.93 µM) | > 128 µg/mL | > 128 µg/mL | 2 µg/mL (≈ 4.93 µM) | 2 µg/mL (≈ 4.93 µM) | 0.12 µg/mL (≈ 0.296 µM) | 16 µg/mL (≈ 39.5 µM) | 8 µg/mL (≈ 19.7 µM) | > 128 µg/mL | > 128 µg/mL | 2 µg/mL (≈ 4.93 µM) | > 128 µg/mL | > 128 µg/mL | 1 µg/mL (≈ 2.47 µM) | 1 µg/mL (≈ 2.47 µM) | > 128 µg/mL | > 128 µg/mL | MIC [1, 16]: > 128 µg/mL; MIC [11, 17]: 0.12 µg/mL (≈ 0.296 µM); MIC (Proteus vulgaris N74-1): > 128 µg/mL; MIC (Proteus rettgeri N76-1): > 128 µg/mL; MIC (Enterococcus SM77-15): 64 µg/mL (≈ 158 µM)
5 | Cc1nnc(SCC2=C(C(=O)O)N3C(=O)[C@@H](NC(=O)Cn4cnnn4)[C@H]3SC2)s1 [Compound XII, Cefazolin, reference compound] | 0.5 µg/mL (≈ 1.1 µM) | > 128 µg/mL | 0.5 µg/mL (≈ 1.1 µM) | 1 µg/mL (≈ 2.2 µM) | > 128 µg/mL | > 128 µg/mL | 1 µg/mL (≈ 2.2 µM) | 1 µg/mL (≈ 2.2 µM) | ≤ 0.06 µg/mL | 64 µg/mL (≈ 141 µM) | 8 µg/mL (≈ 17.6 µM) | > 128 µg/mL | > 128 µg/mL | 2 µg/mL (≈ 4.4 µM) | > 128 µg/mL | > 128 µg/mL | 0.12 µg/mL (≈ 0.264 µM) | 1 µg/mL (≈ 2.2 µM) | > 128 µg/mL | > 128 µg/mL | MIC [1, 16]: > 128 µg/mL; MIC [11, 17]: 0.25 µg/mL (≈ 0.55 µM); MIC (Proteus vulgaris N74-1): > 128 µg/mL; MIC (Proteus rettgeri N76-1): > 128 µg/mL; MIC (Enterococcus SM77-15): 16 µg/mL (≈ 35.2 µM)

From patent US4336375A, “Cephalosporanic acid derivatives” (American Cyanamid Company, priority 1980, dated 1982)
